Test results as given in ChEMBL document CHEMBL3045670, “Protective effect of selenium in Broccoli (Brassica oleracea) plants subjected to cadmium exposure” (J Agric Food Chem, 2008).
The source made the active and inactive calls. The calls are words filed in the database; no cut-off is given here.

Experiments:
[1] = system: Root; assay: Effect on cadmium level in roots of Brassica oleracea (Broccoli) seedlings grown in hydroponic culture containing 1 mg/L in presence of 1 mg/L CdCl2 measured after 40 days after compound treatment; type: ADME; conditions: 960 h
[2] = system: Fruit; assay: Drug level in fruits of Brassica oleracea (Broccoli) seedlings grown in hydroponic culture containing compound at 1 mg/L assessed as SeMet level measured after 40 days after compound treatment; type: ADME; conditions: 960 h
[3] = system: Brassica oleracea; assay: Effect on tocopherol level in Brassica oleracea (Broccoli) seedlings grown in hydroponic culture containing compound at 1 mg/L after 40 days after compound treatment; type: functional, organism-based
[4] = system: Fruit; assay: Drug level in fruits of Brassica oleracea (Broccoli) seedlings grown in hydroponic culture containing 1 mg/L in presence of 1 mg/L CdCl2 measured after 40 days after compound treatment; type: ADME; conditions: 960 h
[5] = system: Root; assay: Drug level in roots of Brassica oleracea (Broccoli) seedlings grown in hydroponic culture containing compound at 1 mg/L in presence of 1 mg/L CdCl2 assessed as SeMetSeCys level measured after 40 days after compound treatment; type: ADME; conditions: 960 h
[6] = system: Fruit; assay: Drug level in fruits of Brassica oleracea (Broccoli) seedlings grown in hydroponic culture containing compound at 1 mg/L in presence of 1 mg/L CdCl2 assessed as Se(IV) level measured after 40 days after compound treatment; type: ADME; conditions: 960 h
[7] = system: Brassica oleracea; assay: Protective effect against cadmium-induced toxicity in Brassica oleracea (Broccoli) seedlings grown in hydroponic culture containing compound at 1 mg/L in presence of 1 mg/L CdCl2 assessed as reduction in MDA level after 30 days after compound treatment by spectrophotometry; type: functional, organism-based
[8] = system: Root; assay: Drug level in roots of Brassica oleracea (Broccoli) seedlings grown in hydroponic culture containing compound at 1 mg/L assessed as SeMetSeCys level measured after 40 days after compound treatment; type: ADME; conditions: 960 h
[9] = system: Fruit; assay: Drug level in fruits of Brassica oleracea (Broccoli) seedlings grown in hydroponic culture containing 1 mg/L measured after 40 days after compound treatment; type: ADME; conditions: 960 h
[10] = system: Brassica oleracea; assay: (§1) Protective effect against cadmium-induced toxicity in Brassica oleracea (Broccoli) seedlings grown in hydroponic culture containing compound at 1 mg/L in presence of 1 mg/L CdCl2 assessed as chlorophyll level assessed per dry weight after 10 days after compound treatment by spectrophotometry (reference value: 120 +/- 8 mg/kg dry weight); type: functional
[11] = system: Fruit; assay: Effect on cadmium level in fruits of Brassica oleracea (Broccoli) seedlings grown in hydroponic culture containing 1 mg/L measured after 40 days after compound treatment; type: ADME; conditions: 960 h
[12] = system: Root; assay: Drug level in roots of Brassica oleracea (Broccoli) seedlings grown in hydroponic culture containing compound at 1 mg/L assessed as Se(IV) level measured after 40 days after compound treatment; type: ADME; conditions: 960 h
[13] = system: Leaf; assay: Drug level in leaves of Brassica oleracea (Broccoli) seedlings grown in hydroponic culture containing 1 mg/L measured after 40 days after compound treatment; type: ADME; conditions: 960 h
[14] = system: Brassica oleracea; assay: Protective effect against cadmium-induced toxicity in Brassica oleracea (Broccoli) seedlings grown in hydroponic culture containing compound at 1 mg/L in presence of 1 mg/L CdCl2 assessed as attenuation of reduction in tocopherol level after 40 days after compound treatment by spectrophotometry; type: functional; design: scale not given: the % may be the effect or the level left
[15] = system: Root; assay: Drug level in roots of Brassica oleracea (Broccoli) seedlings grown in hydroponic culture containing compound at 1 mg/L assessed as SeMet level measured after 40 days after compound treatment; type: ADME; conditions: 960 h
[16] = system: Root; assay: Drug level in roots of Brassica oleracea (Broccoli) seedlings grown in hydroponic culture containing compound at 1 mg/L in presence of 1 mg/L CdCl2 assessed as Se(IV) level measured after 40 days after compound treatment; type: ADME; conditions: 960 h
[17] = system: Leaf; assay: Drug level in leaves of Brassica oleracea (Broccoli) seedlings grown in hydroponic culture containing compound at 1 mg/L assessed as Se(IV) level measured after 40 days after compound treatment; type: ADME; conditions: 960 h
[18] = system: Leaf; assay: Drug level in leaves of Brassica oleracea (Broccoli) seedlings grown in hydroponic culture containing compound at 1 mg/L in presence of 1 mg/L CdCl2 assessed as SeMetSeCys level measured after 40 days after compound treatment; type: ADME; conditions: 960 h
[19] = system: Fruit; assay: Effect on cadmium level in fruits of Brassica oleracea (Broccoli) seedlings grown in hydroponic culture containing 1 mg/L in presence of 1 mg/L CdCl2 measured after 40 days after compound treatment; type: ADME; conditions: 960 h
[20] = system: Fruit; assay: Drug level in fruits of Brassica oleracea (Broccoli) seedlings grown in hydroponic culture containing compound at 1 mg/L assessed as Se(IV) level measured after 40 days after compound treatment; type: ADME; conditions: 960 h
[21] = system: Leaf; assay: Drug level in leaves of Brassica oleracea (Broccoli) seedlings grown in hydroponic culture containing compound at 1 mg/L assessed as SeMet level measured after 40 days after compound treatment; type: ADME; conditions: 960 h
[22] = system: Leaf; assay: Drug level in leaves of Brassica oleracea (Broccoli) seedlings grown in hydroponic culture containing compound at 1 mg/L in presence of 1 mg/L CdCl2 assessed as SeMet level measured after 40 days after compound treatment; type: ADME; conditions: 960 h
[23] = system: Brassica oleracea; assay: Reduction in MDA level in Brassica oleracea (Broccoli) seedlings grown in hydroponic culture containing compound at 1 mg/L after 30 days after compound treatment; type: functional, organism-based
[24] = system: Root; assay: Effect on cadmium level in roots of Brassica oleracea (Broccoli) seedlings grown in hydroponic culture containing 1 mg/L measured after 40 days after compound treatment; type: ADME; conditions: 960 h
[25] = system: Brassica oleracea; assay: Effect on chlorophyll level assessed per dry weight in Brassica oleracea (Broccoli) seedlings grown in hydroponic culture containing compound at 1 mg/L after 10 days after compound treatment (reference value: 200 +/- 26 mg/kg); type: functional
[26] = system: Leaf; assay: Drug level in leaves of Brassica oleracea (Broccoli) seedlings grown in hydroponic culture containing compound at 1 mg/L assessed as SeMetSeCys level measured after 40 days after compound treatment; type: ADME; conditions: 960 h
[27] = system: Root; assay: Drug level in roots of Brassica oleracea (Broccoli) seedlings grown in hydroponic culture containing compound at 1 mg/L in presence of 1 mg/L CdCl2 assessed as SeMet level measured after 40 days after compound treatment; type: ADME; conditions: 960 h
[28] = system: Leaf; assay: Drug level in leaves of Brassica oleracea (Broccoli) seedlings grown in hydroponic culture containing compound at 1 mg/L in presence of 1 mg/L CdCl2 assessed as Se(IV) level measured after 40 days after compound treatment; type: ADME; conditions: 960 h
[29] = system: Fruit; assay: Drug level in fruits of Brassica oleracea (Broccoli) seedlings grown in hydroponic culture containing compound at 1 mg/L in presence of 1 mg/L CdCl2 assessed as SeMetSeCys level measured after 40 days after compound treatment; type: ADME; conditions: 960 h
[30] = system: Leaf; assay: Drug level in leaves of Brassica oleracea (Broccoli) seedlings grown in hydroponic culture containing 1 mg/L in presence of 1 mg/L CdCl2 measured after 40 days after compound treatment; type: ADME; conditions: 960 h
[31] = system: Root; assay: Drug level in roots of Brassica oleracea (Broccoli) seedlings grown in hydroponic culture containing 1 mg/L measured after 40 days after compound treatment; type: ADME; conditions: 960 h
[32] = system: Fruit; assay: Drug level in fruits of Brassica oleracea (Broccoli) seedlings grown in hydroponic culture containing compound at 1 mg/L in presence of 1 mg/L CdCl2 assessed as SeMet level measured after 40 days after compound treatment; type: ADME; conditions: 960 h
[33] = system: Leaf; assay: Effect on cadmium level in leaves of Brassica oleracea (Broccoli) seedlings grown in hydroponic culture containing 1 mg/L measured after 40 days after compound treatment; type: ADME; conditions: 960 h
[34] = system: Brassica oleracea; assay: as §1, with “40” for “10”, “118” for “120”, “12” for “8”; type: functional
[35] = system: Fruit; assay: Drug level in fruits of Brassica oleracea (Broccoli) seedlings grown in hydroponic culture containing compound at 1 mg/L assessed as SeMetSeCys level measured after 40 days after compound treatment; type: ADME; conditions: 960 h
[36] = system: Root; assay: Drug level in roots of Brassica oleracea (Broccoli) seedlings grown in hydroponic culture containing 1 mg/L in presence of 1 mg/L CdCl2 measured after 40 days after compound treatment; type: ADME; conditions: 960 h
[37] = system: Brassica oleracea; assay: Effect on chlorophyll level assessed per dry weight in Brassica oleracea (Broccoli) seedlings grown in hydroponic culture containing compound at 1 mg/L after 40 days after compound treatment (reference value: 181 +/- 23 mg/kg); type: functional
[38] = system: Leaf; assay: Effect on cadmium level in leaves of Brassica oleracea (Broccoli) seedlings grown in hydroponic culture containing 1 mg/L in presence of 1 mg/L CdCl2 measured after 40 days after compound treatment; type: ADME; conditions: 960 h

Structure (SMILES): O=[Se]([O-])[O-].[Na+].[Na+] [SODIUM SELENITE]
- Activity [1]: 53 mg/kg
- Drug uptake [2]: 7.2 mg/kg
- Activity [3]: Active
- Drug uptake [4]: 10 mg/kg
- Drug uptake [5]: 3.4 mg/kg
- Drug uptake [6]: 0.039 mg/kg
- Activity [7]: Active
- Drug uptake [8]: 3.6 mg/kg
- Drug uptake [9]: 27 mg/kg
- Activity [10]: 177 mg/kg
- Activity [11]: 0.4 mg/kg
- Drug uptake [12]: 1.4 mg/kg
- Drug uptake [13]: 2 mg/kg
- Activity [14]: 40%
- Drug uptake [15]: 6.1 mg/kg
- Drug uptake [16]: 1.6 mg/kg
- Drug uptake [17]: 0.082 mg/kg
- Drug uptake [18]: 0.65 mg/kg
- Activity [19]: 48 mg/kg
- Drug uptake [20]: 1.89 mg/kg
- Drug uptake [21]: 0.59 mg/kg
- Drug uptake [22]: 0.62 mg/kg
- Activity [23]: Active
- Activity [24]: 0.36 mg/kg
- Activity [25]: 155 mg/kg
- Drug uptake [26]: 0.71 mg/kg
- Drug uptake [27]: 5.4 mg/kg
- Drug uptake [28]: 0.09 mg/kg
- Drug uptake [29]: 6.5 mg/kg
- Drug uptake [30]: 1.54 mg/kg
- Drug uptake [31]: 20 mg/kg
- Drug uptake [32]: 0.24 mg/kg
- Activity [33]: 0.2 mg/kg
- Activity [34]: 175 mg/kg
- Drug uptake [35]: 12.3 mg/kg
- Drug uptake [36]: 21 mg/kg
- Activity [37]: 148 mg/kg
- Activity [38]: 7.5 mg/kg
